Results on 6 molecules are retold here after ChEMBL document CHEMBL1137869 (Bioorg Med Chem Lett, 2004).

Data set [1] can be described thus: Maximum concentration was determined in dog by iv/po dose at 5 mg/kg. The format is ADME, organism-based, Canis lupus familiaris. Details: dose 5 mg/kg. The following applies: in vivo.
Data set [2] deals with T1, Platelet-derived growth factor receptor beta (Homo sapiens, UniProt P09619). Kind of data set: In vitro inhibition of Platelet derived growth factor receptor beta autophosphorylation in MG-63 cells with 45% human plasma. The format is cell-based.
The target of data set [3] is T1, Platelet-derived growth factor receptor beta. Kind of data set: In vitro inhibition of Platelet derived growth factor receptor beta autophosphorylation in MG-63 cells without plasma. It counts as cell-based.
A short description of data set [4]: Inhibition of PDGFR-beta/Flt-3 chimeric receptor autophosphorylation in CHO cells. The format is cell-based.
A short description of data set [5]: Inhibition of PDGFR-beta/c-Kit chimeric receptor autophosphorylation in CHO cells. The format is cell-based.
Data set [6] can be described thus: Plasma half life was determined in monkey by iv/po dose at 10 mg/kg. The format is ADME, organism-based. The following applies: cercopithecidae. More on the design: dose 10 mg/kg.
Data set [7] in a line: Maximum concentration was determined in rat by iv/po dose at 10 mg/kg. It counts as ADME, organism-based. More on the design: dose 10 mg/kg. The following applies: in vivo.
Data set [8] in a line: Maximum concentration was determined in monkey by iv/po dose at 10 mg/kg. It counts as ADME, organism-based. Details: dose 10 mg/kg. As to conditions: cercopithecidae, in vivo.
Data set [9] can be described thus: Area under curve was determined in dog by peroral dose at 5 mg/kg. The following applies: in vivo, po. Details: dose 5 mg/kg, route oral. It counts as ADME, organism-based, Canis lupus familiaris.
Data set [10] can be described thus: Area under curve was determined in rat by peroral dose at 10 mg/kg. The format is ADME, organism-based. The following applies: in vivo, po. Details: dose 10 mg/kg, route oral.
The nature of data set [11]: Percent bioavailability was determined in dog by iv/po dose at 5 mg/kg. The following applies: in vivo. The format is ADME, organism-based, Canis lupus familiaris.
Data set [12] is described as follows: Percent bioavailability was determined in rat by iv/po dose at 10 mg/kg. The format is ADME, organism-based. As to conditions: in vivo.
A short description of data set [13]: Percent bioavailability was determined in monkey by iv/po dose at 10 mg/kg. It counts as ADME, organism-based. The following applies: cercopithecidae, in vivo.
The nature of data set [14]: Plasma half life was determined in dog by iv/po dose at 5 mg/kg. It counts as ADME, organism-based, Canis lupus familiaris. More on the design: dose 5 mg/kg.
For data set [15], the target named is T1, Platelet-derived growth factor receptor beta. In words: Inhibition of Platelet derived growth factor receptor beta autophosphorylation in CHO cells. It counts as cell-based.
Data set [16] can be described thus: Plasma half life was determined in rat by iv/po dose at 10 mg/kg. The format is ADME, organism-based. More on the design: dose 10 mg/kg.
The nature of data set [17]: Area under curve was determined in rat by peroral dose at 30 mg/kg. It counts as ADME, organism-based. Details: dose 30 mg/kg, route oral. As to conditions: in vivo, po.
The nature of data set [18]: Plasma half life was determined in dog by iv/po dose at 8.69 mg/kg. The format is ADME, organism-based, Canis lupus familiaris. More on the design: dose 8.69 mg/kg.
Data set [19] can be described thus: Maximum concentration was determined in rat by iv/po dose at 30 mg/kg. The format is ADME, organism-based. Details: dose 30 mg/kg. The following applies: in vivo.
A short description of data set [20]: Maximum concentration was determined in dog by iv/po dose at 8.69 mg/kg. The format is ADME, organism-based, Canis lupus familiaris. More on the design: dose 8.69 mg/kg. The following applies: in vivo.
The nature of data set [21]: Bioavailability in rat (dose 30 mg/kg i.v./p.o.). The format is ADME, organism-based. The following applies: in vivo, po.
Data set [22] can be described thus: Percent bioavailability was determined in dog by iv/po dose at 8.69 mg/kg. It counts as ADME, organism-based, Canis lupus familiaris. As to conditions: in vivo.
Data set [23] in a line: Plasma half life was determined in rat by iv/po dose at 30 mg/kg. The format is ADME, organism-based. Details: dose 30 mg/kg.
The nature of data set [24]: Plasma half life was determined in dog by iv/po dose at 8.09 mg/kg. It counts as ADME, organism-based, Canis lupus familiaris. More on the design: dose 8.09 mg/kg.
Data set [25] can be described thus: Maximum concentration was determined in dog by iv/po dose at 8.09 mg/kg. More on the design: dose 8.09 mg/kg. As to conditions: in vivo. It counts as ADME, organism-based, Canis lupus familiaris.
Data set [26] can be described thus: Percent bioavailability was determined in dog by iv/po dose at 8.09 mg/kg. It counts as ADME, organism-based, Canis lupus familiaris. The following applies: in vivo.

T1 sequence (P09619 whole entry): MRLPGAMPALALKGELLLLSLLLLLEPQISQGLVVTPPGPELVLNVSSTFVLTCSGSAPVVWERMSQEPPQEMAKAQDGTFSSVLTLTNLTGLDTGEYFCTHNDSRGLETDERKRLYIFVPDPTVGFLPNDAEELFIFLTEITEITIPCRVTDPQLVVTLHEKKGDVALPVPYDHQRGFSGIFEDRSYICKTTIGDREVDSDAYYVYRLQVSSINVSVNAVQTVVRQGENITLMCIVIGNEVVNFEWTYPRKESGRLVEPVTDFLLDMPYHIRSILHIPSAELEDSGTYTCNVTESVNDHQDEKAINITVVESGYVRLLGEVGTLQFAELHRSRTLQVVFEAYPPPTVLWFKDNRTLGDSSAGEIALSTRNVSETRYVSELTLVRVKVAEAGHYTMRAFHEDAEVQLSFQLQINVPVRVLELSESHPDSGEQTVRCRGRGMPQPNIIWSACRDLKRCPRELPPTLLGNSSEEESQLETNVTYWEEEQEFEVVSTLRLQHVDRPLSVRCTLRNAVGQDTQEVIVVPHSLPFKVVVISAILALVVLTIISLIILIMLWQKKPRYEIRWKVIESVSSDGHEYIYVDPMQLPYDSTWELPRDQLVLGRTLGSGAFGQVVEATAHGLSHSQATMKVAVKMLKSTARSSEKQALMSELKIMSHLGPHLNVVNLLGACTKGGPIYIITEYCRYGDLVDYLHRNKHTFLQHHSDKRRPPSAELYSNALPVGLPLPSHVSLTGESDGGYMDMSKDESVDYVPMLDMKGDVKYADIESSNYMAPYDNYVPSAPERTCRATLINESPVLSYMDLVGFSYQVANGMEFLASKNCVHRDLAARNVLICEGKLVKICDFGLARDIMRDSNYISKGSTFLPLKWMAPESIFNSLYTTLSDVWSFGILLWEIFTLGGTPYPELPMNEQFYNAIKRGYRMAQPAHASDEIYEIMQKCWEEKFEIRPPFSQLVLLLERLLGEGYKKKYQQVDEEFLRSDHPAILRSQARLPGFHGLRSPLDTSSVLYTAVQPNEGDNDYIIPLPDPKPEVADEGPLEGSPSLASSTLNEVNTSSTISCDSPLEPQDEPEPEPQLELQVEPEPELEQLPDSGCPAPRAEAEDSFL

Take `COc1cc2c(N3CCN(/C(S)=N\c4ccc(-c5ccccn5)cc4)CC3)ncnc2cc1OCCN1CCCCC1`: the Cmax came out at 38.9 ng/mL in data set [1], 34.1 ng/mL in data set [7] and 143 ng/mL in [8]. The IC50 in data set [2] was determined as 150 nM; in [3], 180 nM; in data set [4] it was 3190 nM; in data set [5], 100 nM; in data set [15], 70 nM. Moreover, the half-life was 8.46 h in data set [6], 7.58 h in data set [14] and 17.4 h in data set [16]. Further, the AUC turned out to be 333 ng·h/mL in data set [9] and 26.9 µg/h/mL in data set [10]. Moreover, the bioavailability in data set [11] amounted to 30.2%; in [12] it was 8.82%; in data set [13], 68%.

In the case of `COc1cc2c(N3CCN(C(=S)NCc4cnc(C)cn4)CC3)ncnc2cc1OCCN1CCCCC1`, the AUC in data set [17] came to 32.2 µg/h/mL. Besides, the IC50 in data set [2] is 60 nM; in data set [3], 50 nM; in data set [4], greater than 30000 nM; in [5], 890 nM; in data set [15], 250 nM. In addition, the half-life is 10.8 h in data set [18], 20.9 h in data set [6] and 14.1 h in [23]. Further, the Cmax in [19] was 239 ng/mL; in data set [20], 297 ng/mL; in data set [8] it was 235 ng/mL. The bioavailability in [21] was determined as 13.7%; in data set [22], 38.8%.

`COc1cc2c(N3CCN(C(=S)NCc4ccc5c(c4)OCO5)CC3)ncnc2cc1OCCN1CCCCC1` had an AUC in data set [17] of 69 µg/h/mL. The IC50 turned out to be 120 nM in data set [2]; 20 nM in data set [3]; 2910 nM in data set [4]; 60 nM in data set [5]; 40 nM in data set [15]. Also, the half-life was 15.7 h in [24], 9.25 h in data set [6] and 26.7 h in [23]. Besides, the Cmax in data set [19] worked out at 146 ng/mL; in data set [25], 456 ng/mL; in data set [8] it was 92.5 ng/mL. The values for the bioavailability in data set [21] and in data set [26] were 39.1% and 102%, respectively.

For the molecule `COc1cc2c(N3CCN(/C(S)=N\Cc4ccc(C)o4)CC3)ncnc2cc1OCCCN1CCCCC1`, the IC50 in data set [2] was 90 nM; in [3], 80 nM; in data set [4] it was greater than 30000 nM; in data set [5] it was 50 nM; in data set [15], 80 nM.

As for `COc1cc2c(N3CCN(C(=S)NCc4ccc(Cl)nc4)CC3)ncnc2cc1OCCN1CCCCC1`, the IC50 in [2] was 80 nM; in data set [3] it was 1010 nM; in data set [4] it was greater than 30000 nM; in data set [5], 70 nM; in data set [15] it was 50 nM.

For `COc1cc2c(N3CCN(/C(S)=N\Cc4ccc(C)nc4)CC3)ncnc2cc1OCCCN1CCCCC1`, the IC50 is 90 nM in [2]; 140 nM in data set [3]; greater than 30000 nM in data set [4]; 240 nM in data set [5]; 140 nM in [15].
